How the values were obtained:
AC17-4 RNA aptamer = experiment: Affinity measurement by SPR, AC17-4 immobilized chip; format: binding; conditions: for Kd: 25 °C; for affinity for AC17-4 (in words): ASP2905 versus ASP7967
Description: Affinity measurements of the aptamers with the ligands by SPR were performed as described by Chang et al.^53 with some modifications. Experiments were performed on Biacore T200 (Cytiva) at 25° C. For immobilization of the capture DNA (5′-/5AmMC6/[…]-3′ (SEQ ID NO: 32),/5AmMC6/: 5′ amino modifier C6, IDT), 1×HBS-N (10 mM HEPES, pH 7.4, 150 mM NaCl) was used as the running buffer. CM5 chip surface was washed by two injections of NaOH/NaCl solution (25 mM NaOH, 1 M NaCl) at 20 μl min^−1 for 30 s. Next, a solution containing 200 mM 1-ethyl-3-(3-dimethylaminopropyl) carbodiimide hydrochloride (EDC) and 50 mM N-hydroxysuccinimide (NHS) was injected into all flow cells at 10 μl min^−1 for 7 min to activate the surface carboxylic acid groups. Then, the capture DNA (20 μM) in 10 mM HEPES-KOH buffer (pH 7.5) supplemented with 0.6 mM cetyltrimethylammonium bromide was injected at 5 μl min^−1 for 10 min. The unreacted activated carboxylic acid groups were quenched by an injection of 1 M ethanolamine-HCl (pH 8.5) for 7 min at 10 μl min^−1. To remove the noncovalently adsorbed DNA on the chip surface, NaOH/NaCl solution was injected two times at 20 μl min^−1 for 30 s. The immobilized DNA levels were 2846±284 RU.
The dsDNA templates for in vitro transcription of the aptamers were prepared by primer extension of two oligo DNAs using Q5 High-Fidelity DNA Polymerase (NEB). AC17-4 RNA aptamer and its mutants containing 3′ poly(A) tail (Table 4) were synthesized by in vitro transcription using ScriptMAX Thermo T7 Transcription Kit (TOYOBO) according to the manufacturer's instructions. The reaction products were treated with 2 U TURBO DNase (Thermo Fisher Scientific) for 30 min at 37° C. and purified with RNA Clean & Concentrator-25 Kit (Zymo Research). RNA concentrations were determined by absorbance at 260 nm according to OligoCalc^54. RNA solutions (~3.6 μM) were prepared in water and denatured by heating at 80° C. for 3 min. After cooling at room temperature for few minutes, the RNA solutions were diluted with an equal volume of high salt buffer (10 mM Tris-HCl, pH 7.5, 1 M NaCl, 1 mM EDTA). Stock solutions of ASP2905 and ASP7967 in DMSO (20 mM, fumaric acid adduct, Astellas Pharma, Inc.) were prepared based on the weight. […] An aptamer ligand was injected at 30 μl min^−1 for 120 s to monitor association, and then the dissociation kinetics was monitored for 180 s in the SPR running buffer. […] The raw data were analysed by Biacore T200 Evaluation Software 1.0 using 1:1 Langmuir interaction model. […] Dissociation constant (KD) was determined from the ratio of the association and the dissociation rate constants (KD=koff/kon) or by equilibrium analysis. […]

[1] = test system: a8-AC17-4-CPP riboswitch (EGFP expression in HEK293 cells); experiment: Riboswitch assay in HEK293 cells, a8-AC17-4-CPP, ligand response; format: cell-based; conditions: for fold induction at 5 µM: 48 h, 5 μM ligand, HEK293 cells, read-out: activation of EGFP / gene expression (ON/OFF)
Description: HEK293 cells were cultured in Dulbecco's modified Eagle's medium (DMEM) supplemented with 10% heat-inactivated FBS (Gibco) containing 2 mM L-glutamine and 100 units ml^−1 of penicillin-streptomycin (DMEM-FBS). Cells were kept in a 37° C. incubator with 5% CO2 and passaged regularly upon reaching 90% confluency. Approximately 20 h prior to transfection, the cells were trypsinized, diluted to ~2.7×10^5 cells ml^−1 and 100 μl per well were seeded onto a 96-well plate. Cells in each well were cotransfected with 100 ng of the EGFP-aptazyme plasmid and 20 ng of pCMV-mCherry^27 (transfection control) using 0.3 μl of TransIT-293 Transfection Reagent (Mirus) according to the manufacturer's instructions. Five hours after transfection, the medium in each well was replaced with fresh medium with (up to 5 μM) or without ASP2905 or ASP7967. The aptamer ligands were dissolved at 1000× concentration in DMSO. Forty-eight hours after transfection, the medium in each well was replaced with 100 μl of phosphate buffered saline (PBS), and fluorescence intensity was measured by Infinite M1000 PRO microplate reader (Tecan). Fluorescence intensity was measured at 484 nm excitation/510 nm emission/5 nm bandwidth for EGFP, and at 587 nm excitation/610 nm emission/10 nm bandwidth for mCherry. Background fluorescence measured using untransfected cells was subtracted from the EGFP and mCherry fluorescence values. Then, EGFP fluorescence was normalized by mCherry fluorescence to account for variations in transfection efficiency and cell counts. All reported values are averages of three replicate wells.
The anti-Rz sequence was varied from 6 to 10 nucleotides, and the aptazyme was inserted in the 3′ UTR of the EGFP transcript.
The EGFP-riboswitch plasmid and an mCherry-expressing plasmid (transfection control) were cotransfected into HEK293 cells in the absence or presence (5 μM) of ASP2905 or ASP7967. EGFP and mCherry fluorescence was measured two days after transfection, and EGFP fluorescence was normalized by mCherry fluorescence to account for variability in transfection efficiency. […] We attribute this to the coincidental complementarity of the nucleotides preceding anti-Rz (CA) to the ribozyme sequence, making the effective anti-Rz sequence length longer than intended.
The riboswitch a8-AC17-4-CPP was further analyzed for the dose dependent response to ASP7967 (FIG. 6d).

Row | SMILES | Kd (AC17-4 RNA aptamer) [nM] | affinity for AC17-4 (in words) (AC17-4 RNA aptamer) | ASP7967 concentration at which riboswitch response mostly saturated [1] [µM] | fold induction at 5 µM ([1]; Homo sapiens) | EC50 ([1]; Homo sapiens, HEK293, dose dependent response) [nM]
1 | Fc1ccc(Nc2nc(NCc3ncccn3)nc(Nc3ccc(F)cc3)n2)cc1 [ASP7967] | 12 | comparable affinity | 5 | ~10 | ~1100
2 | Fc1ccc(Nc2nc(NCc3ncccn3)nc(Nc3ccccc3)n2)cc1 [ASP2905, reference compound] | 7.7 | comparable affinity | – | ~10 | –

Reference: US20260327628A1, “AN RNA APTAMER THAT BINDS TO ASP7967 OR AN ANALOGUE THEREOF” (priority 2022, published 2026)
